Experimental data taken from US12568972B2, “Pyridazinol compounds and derivatives, preparation methods, herbicidal compositions and applications thereof” (Qingdao Kingagroot Chemical Compound Co., Ltd., priority 2018, dated 2026).

Assays:
Experiment in all cases: Post-emergence test, weed control effect
Type in all cases: in vivo
Amaranthus retroflexus = details: after 3 weeks
Procedure, shortened: (§1)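 Score 0-10 (10 = completely dead, 1 = below 20%, 0 = no effect) from fresh-weight growth inhibition, read 3 weeks after a post-emergence spray. Greenhouse pot plants at 2-3 leaves; spray solution acetone/Tween-80/water with 80% vegetable oil methyl ester synergist at 1500 g/ha.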

Chenopodiaceae = details: after 3 weeks
Procedure, shortened: as §1

Echinochloa crus-galli = details: 504 h, after 3 weeks, fresh weight inhibition, read-out: activity level of harmful plant destruction (growth inhibition rate), Echinochloa crus-galli
Procedure, shortened: as §1

Galium aparine = details: 504 h, after 3 weeks, fresh weight inhibition, read-out: activity level of harmful plant destruction (growth inhibition rate), Galium aparine
Procedure, shortened: as §1

Rorippa indica = details: after 3 weeks
Procedure, shortened: as §1

Setaria viridis = details: 504 h, after 3 weeks, fresh weight inhibition, read-out: activity level of harmful plant destruction (growth inhibition rate), Setaria viridis
Procedure, shortened: as §1

Veronica polita = details: after 3 weeks
Procedure, shortened: as §1

[1] = 504 h, fresh weight inhibition, read-out: activity level of harmful plant destruction (growth inhibition rate), Chenopodiaceae
[2] = Rorippa indica, 504 h, fresh weight inhibition, read-out: activity level of harmful plant destruction (growth inhibition rate), Rorippa indica
[3] = Veronica polita, 504 h, fresh weight inhibition, read-out: activity level of harmful plant destruction (growth inhibition rate), Veronica polita

| Compound | weed control effect (activity level), Amaranthus retroflexus (Amaranthus retroflexus; Dose 3000 g/ha) | inhibition at 300 g/ha (Chenopodiaceae; [1]) [%] | weed control effect (activity level), Chenopodiaceae (Chenopodiaceae; Dose 3000 g/ha) | inhibition at 300 g/ha (Echinochloa crus-galli) [%] | inhibition at 300 g/ha (Galium aparine) [%] | weed control effect (activity level), Rorippa indica (Rorippa indica; Dose 3000 g/ha) | inhibition at 300 g/ha (Rorippa indica; [2]) [%] | inhibition at 300 g/ha (Setaria viridis) [%] | weed control effect (activity level), Veronica polita (Veronica polita; Dose 3000 g/ha) | inhibition at 300 g/ha (Veronica polita; [3]) [%] | weed control effect (activity level), Amaranthus retroflexus (Amaranthus retroflexus; dose 2000 g/ha) | inhibition at 150 g/ha (Chenopodiaceae; 504 h, Dose 150 g/ha, fresh weight inhibition, read-out: activity level of harmful plant destruction (growth inhibition rate), Chenopodiaceae) [%] | weed control effect (activity level), Chenopodiaceae (Chenopodiaceae; dose 2000 g/ha) | inhibition at 150 g/ha (Echinochloa crus-galli; Dose 150 g/ha) [%] | inhibition at 150 g/ha (Galium aparine; Dose 150 g/ha) [%] | inhibition at 150 g/ha (Rorippa indica; Rorippa indica, 504 h, Dose 150 g/ha, fresh weight inhibition, read-out: activity level of harmful plant destruction (growth inhibition rate), Rorippa indica) [%] | weed control effect (activity level), Rorippa indica (Rorippa indica; dose 2000 g/ha) | inhibition at 150 g/ha (Setaria viridis; Dose 150 g/ha) [%] | inhibition at 150 g/ha (Veronica polita; Veronica polita, 504 h, Dose 150 g/ha, fresh weight inhibition, read-out: activity level of harmful plant destruction (growth inhibition rate), Veronica polita) [%] | weed control effect (activity level), Veronica polita (Veronica polita; dose 2000 g/ha) |
| --- | --- | --- | --- | --- | --- | --- | --- | --- | --- | --- | --- | --- | --- | --- | --- | --- | --- | --- | --- | --- |
| Oc1cc(C(F)(F)F)nnc1-c1ccc(F)c(F)c1 [Compound 744] | 10 | 100 | 10 | 100 | 100 | 10 | 100 | 100 | 10 | 100 | – | – | – | – | – | – | – | – | – | – |
| Cc1cc(-c2nnc(C(F)(F)F)cc2O)n(C)n1 [Compound 779] | 10 | 100 | 10 | 100 | 100 | 10 | 100 | 100 | 10 | 100 | – | – | – | – | – | – | – | – | – | – |
| Oc1cc(C(F)(F)F)nnc1-c1cnn(C(F)F)c1 [Compound 844] | – | – | – | – | – | – | – | – | – | – | 10 | 100 | 10 | 100 | 100 | 100 | 10 | 100 | 100 | 10 |
| Oc1cc(C(F)(F)F)nnc1-c1cnc(F)c(Cl)c1 [Compound 1000] | 10 | 100 | 10 | 100 | 100 | 10 | 100 | 100 | 10 | 100 | – | – | – | – | – | – | – | – | – | – |
